pIC50: −log10 of the molar value. Counter-ions that a name gives are not always drawn.

These results are taken from patent publication US20080171737A1 (Wyeth, priority 2006, published 2008).

T1 sequence (P23975 whole entry): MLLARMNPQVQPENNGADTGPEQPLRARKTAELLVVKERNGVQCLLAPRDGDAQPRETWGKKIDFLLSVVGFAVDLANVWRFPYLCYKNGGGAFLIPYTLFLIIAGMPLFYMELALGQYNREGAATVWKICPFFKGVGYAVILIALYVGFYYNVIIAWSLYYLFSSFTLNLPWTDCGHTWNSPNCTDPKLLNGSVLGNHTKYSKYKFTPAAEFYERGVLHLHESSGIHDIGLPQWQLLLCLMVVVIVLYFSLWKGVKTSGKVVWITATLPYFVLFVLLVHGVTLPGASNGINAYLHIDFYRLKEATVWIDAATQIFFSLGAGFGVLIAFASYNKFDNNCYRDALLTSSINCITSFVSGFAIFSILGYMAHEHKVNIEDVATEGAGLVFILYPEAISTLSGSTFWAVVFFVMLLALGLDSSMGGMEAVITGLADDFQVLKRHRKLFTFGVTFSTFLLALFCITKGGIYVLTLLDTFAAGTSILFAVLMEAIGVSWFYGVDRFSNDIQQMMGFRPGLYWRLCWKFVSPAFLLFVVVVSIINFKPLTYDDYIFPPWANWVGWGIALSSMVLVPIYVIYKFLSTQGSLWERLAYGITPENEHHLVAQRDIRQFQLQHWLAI

The first assay has as its target T1, human hNET (Homo sapiens, UniProt P23975).
T1 construct: expressed in transfected cells; host or cells: MDCK-Net6 (MDCK cells stably transfected with hNET)
The experiment in a line: Functional norepinephrine reuptake assay, Procedure B (6,000 cells/well).
Details: not given
Format: cell-based. How it is done: For screening, 25 μl aliquots of compound solution at a 1 μM or 10 μM final concentration was delivered directly to cells.
For IC50 determinations, stock compounds were prepared at 10 mM from powder. The stock solution was diluted according to compound testing range. […] On the day of assay, 25 μl of compound solution at the specified concentrations were added to the plates containing cells. A DMSO stock of desipramine was prepared at 10 mM in DMSO and diluted for a final concentration of 20 μM to determine the non-specific reuptake.
MDCK-Net6 cells, stably transfected with human hNET (Pacholczyk, 1991), were maintained in growth media [high glucose DMEM (Gibco Cat. 11995), 10% FBS (dialyzed, heat-inactivated, Sigma, dialysed, heat inactivated, Lot# K0922 or equivalent) 1xPen/Strep, and 500 μg/ml G418 (Gibco Cat. 10131)]. Cells were plated at 300,000/T75 flask and cells split twice weekly.
Cells were plated at 50,000 cells/well (Procedure A) or 6,000 cells/well (Procedure B) on day 1 in BD Falcon Microtest 96-well sterile cell culture plates, Optilux White/Clear Bottom TC plate (VWR; # 62406-466 or equivalent) in growth media and maintained in a cell incubator (37° C., 5% CO2). On Day 2, cells were removed from the cell incubator and the growth media is replaced by 200 μl of assay buffer (25 mm HEPES 120 mM NaCL; 5 mM KCl; 2.5 mM CaCl2; 1.2 mM MgSO4; 2 mg/ml glucose (pH 7.4, 37° C.)) containing 0.2 mg/ml ascorbic acid and 1 μM parglyine. For screening, 25 μl of compound in 4% DMSO was added directly to each well and the plate was incubated for 5 minutes (37° C.). […] The reaction is aspirated from the plate and the cells washed with 250 μl of 50 mM Tris Buffer (4° C.). The plates were left to dry for 1 hour. The cells were lysed using 0.25 M NaOH solution then placed on a shake table and vigorously shaken for 10 minutes. After cell lysis, 100 μl of Microscint 20 (PerkinElmer; #87-051101) was added to the plates and the plates were sealed with film tape and replaced on the shake table for a minimum of 10 minutes. The plates were counted in a TopCount counter (PerkinElmer).
% inhibition=[1−((mean cpm test compound wells−mean cpm non-specific wells)/(mean cpm control wells−mean cpm non-specific wells))]×100
For IC50 determination, raw cpm values were generated in a data file from the TopCount counter. The data was organized using the Microsoft Excel and transferred into PRIZM graphing and statistical program, which calculated the estimated IC50 value. Calculation of IC50 values was made using non-linear regression analysis with a sigmoidal dose response with variable slope. The statistical program used wells containing ^3H norepinephrine only as the maximal NE reuptake determinant and wells containing ^3H norepinephrine plus 20 μM desipramine (AHR-9543) as the minimal NE reuptake determinant (non-specific determinant). Estimation of the IC50 value was completed on a log scale and the line was fit between the maximal and minimal NE reuptake values.
On to `CNCCC[C@H]1Cc2ccccc2N(c2c(F)cccc2F)S1(=O)=O` (single isomer, unassigned) [Example 121], for which the pIC50 (commonly the negative decadic logarithm of the IC50, by convention in mol/L) was 7.28. Take `CNCCC[C@@H]1Cc2ccccc2N(c2c(F)cccc2F)S1(=O)=O` (single isomer, unassigned) [Example 122]: the pIC50 is 8.30. Compound `CNCCC[C@H]1Cc2cc(F)ccc2N(c2c(F)cccc2F)S1(=O)=O` (single isomer, unassigned) [Example 155] showed a pIC50 of 7.60. On the same count and under the same terms, then `CNCCC[C@@H]1Cc2cc(F)ccc2N(c2c(F)cccc2F)S1(=O)=O` (single isomer, unassigned) [Example 156], with 7.57.

The same assay, now with this note: MDCK-Net6 cells, 6,000 cells/well, 16 nM 3H-norepinephrine; read-out: Procedure B hNET uptake IC50.
Consider `CNCCC[C@H]1Cc2cc(F)ccc2N(c2ccc(F)cc2F)S1(=O)=O` (single isomer, unassigned) [Example 112], for which the pIC50 is 7.00. Regarding `CNCCC[C@@H]1Cc2cc(F)ccc2N(c2ccc(F)cc2F)S1(=O)=O` (single isomer, unassigned) [Example 113], the negative-log IC50 (pIC50) was 7.47.

Take `CNCC[C@H](O)[C@@H]1Cc2ccccc2N(c2ccccc2)S1(=O)=O` (single isomer, unassigned) [Example 114]: the pIC50 is 7.00. Regarding `CNCC[C@@H](O)[C@@H]1Cc2ccccc2N(c2ccccc2)S1(=O)=O` (single isomer, unassigned) [Example 115], the pIC50 is 6.26. For the compound `CNCC[C@@H](O)[C@H]1Cc2ccccc2N(c2ccccc2)S1(=O)=O` (single isomer, unassigned) [Example 116], the pIC50 was 7.07. Consider `CNCC[C@H](O)[C@H]1Cc2ccccc2N(c2ccccc2)S1(=O)=O` (single isomer, unassigned) [Example 117], for which the pIC50 is 7.10. In the case of `CNCC[C@H]1Oc2cc(F)ccc2N(c2ccccc2)S1(=O)=O` (single isomer, unassigned) [Example 118], the pIC50 was 6.84. On to `CNCC[C@@H]1Oc2cc(F)ccc2N(c2ccccc2)S1(=O)=O` (single isomer, unassigned) [Example 119], for which the pIC50 was 6.31. Same read-out and setting: the value for `CNCCC[C@H]1Cc2ccccc2N(c2cccnc2)S1(=O)=O` (single isomer, unassigned) [Example 124] was 5.77; that for `CNCCC[C@@H]1Cc2ccccc2N(c2cccnc2)S1(=O)=O` (single isomer, unassigned) [Example 125] was 6.62. As for `CNCCC[C@H]1Cc2ccccc2N(c2ccccn2)S1(=O)=O` (single isomer, unassigned) [Example 127], the pIC50 was 5.81. In the case of `CNCCC[C@@H]1Cc2ccccc2N(c2ccccn2)S1(=O)=O` (single isomer, unassigned) [Example 128], the pIC50 was 7.05. For `CNCCC[C@@H]1Oc2cc(F)ccc2N(c2ccccc2F)S1(=O)=O` (single isomer, unassigned) [Example 130, Hydrochloride], the pIC50 is 7.35. With `CNCCC[C@H]1Oc2cc(F)ccc2N(c2ccccc2F)S1(=O)=O` (single isomer, unassigned) [Example 131, Hydrochloride], the pIC50 is 7.51. As to `CNCCC[C@H]1Cc2cc(F)ccc2N(c2cccc(F)c2F)S1(=O)=O` (single isomer, unassigned) [Example 146], the pIC50 was 7.18. As to `CNCCC[C@@H]1Cc2cc(F)ccc2N(c2cccc(F)c2F)S1(=O)=O` (single isomer, unassigned) [Example 147], the pIC50 was 7.47. Consider `CNCCC[C@H]1Cc2cc(F)ccc2N(c2ccc(C)cc2F)S1(=O)=O` (single isomer, unassigned) [Example 149], for which the pIC50 was 7.13.

Turning to `CNCCC[C@@H]1Cc2cc(F)ccc2N(c2ccc(C)cc2F)S1(=O)=O` (single isomer, unassigned) [Example 150], the negative-log IC50 (pIC50) was 7.80. `CNCCC[C@H]1Cc2cc(F)ccc2N(c2cc(F)ccc2F)S1(=O)=O` (single isomer, unassigned) [Example 152]: the pIC50 was 7.40. The same measure, in the same setting: the value for `CNCCC[C@@H]1Cc2cc(F)ccc2N(c2cc(F)ccc2F)S1(=O)=O` (single isomer, unassigned) [Example 153] was 7.37.
